Measured values as given in paper PMC6792352, “Limited Chemical Structural Diversity Found to Modulate Thyroid Hormone Receptor in the Tox21 Chemical Library” (Environmental Health Perspectives, 2019).
Counter-ions that a name gives are not always drawn.

Experiment: in vitro
Settings: rat, gh3-tre-luc cells, AC50 (uM) modified / 1000

| Compound | CC50 at 24 h [µM] |
| --- | --- |
| C=CCN(CC=C)C(=O)C(Cl)Cl [Dichlormid] | > 90 |
| CC[N+](CC)(CC)CCOc1cccc(OCC[N+](CC)(CC)CC)c1OCC[N+](CC)(CC)CC [Gallamine triethiodide] | > 50 |
| O=[N+]([O-])/C=C/c1ccccc1 [(E)-beta-Nitrostyrene] | 13.7 |
| C[Si]1(C)N[Si](C)(C)N[Si](C)(C)N1 [2,2,4,4,6,6-Hexamethyl-1,3,5,2,4,6-triazatrisilinane] | > 90 |
| CCCCC(C)C(=O)O (stereo not shown) [2-Methylhexanoic acid] | > 90 |
| N#C/N=C1\SCCN1Cc1ccc(Cl)nc1 [Thiacloprid] | > 90 |
| Cc1ccn2nc(S(=O)(=O)Nc3c(F)cccc3F)nc2n1 [Flumetsulam] | > 90 |
| CCCN(CC)C(CC)C(=O)Nc1c(C)cccc1C (stereo not shown) [Etidocaine] | > 50 |
| C=CC(=O)OCCOc1ccccc1 [2-Phenoxyethyl acrylate] | > 90 |
| CCCCCCCCCCC=O [Undecanal] | > 90 |
| CCCCCCCCCCCCCCCCBr [1-Bromohexadecane] | > 30 |
| O=C(O)COc1nc(Cl)c(Cl)cc1Cl [Triclopyr] | > 90 |
| CCCCCCn1cc[n+](C)c1 [1-Hexyl-3-methylimidazolium trifluoromethanesulfonate] | > 90 |
| C=CCCC#N [4-Pentenenitrile] | > 90 |
| COc1ccc2c(=O)c(C)c(-c3ccccc3)oc2c1CN(C)C [Dimefline hydrochloride] | > 50 |
| Cc1c(Cl)cccc1[N+](=O)[O-] [1-Chloro-2-methyl-3-nitrobenzene] | > 90 |

| Compound | CC50 at 24 h [µM] |
| --- | --- |
| O=C(CCCN1CCN(c2ccccn2)CC1)c1ccc(F)cc1 [Azaperone] | > 50 |
| COCCCC/C(=N\OCCN)c1ccc(C(F)(F)F)cc1 [Fluvoxamine] | 15 |
| Cc1c(-c2ccccc2)oc2c(C(=O)OCCN3CCCCC3)cccc2c1=O [Flavoxate hydrochloride] | > 20 |
| N#CCBr [Bromoacetonitrile] | > 100 |
| C1CCCCC1 [Cyclohexane] | > 90 |
| Cc1ccccc1NC(=N)NC(=N)N [1-(o-Tolyl)biguanide] | > 90 |
| CCCCC[C@H](O)/C=C/[C@H]1[C@H](O)CC(=O)[C@@H]1CCCCCCC(=O)O [Alprostadil] | > 20 |
| N[C@@H](C(=O)N[C@@H]1C(=O)N2C(C(=O)O)=C(Cl)CS[C@H]12)c1ccccc1 [Cefaclor] | > 50 |
| C[N+](C)(C)CCOP(=O)(O)OP(=O)([O-])OC[C@H]1O[C@@H](n2ccc(N)nc2=O)[C@H](O)[C@@H]1O [Citicoline sodium] | > 50 |
| COC(=O)CC(=O)OC [Dimethyl malonate] | > 100 |
| CCN(CC)CCc1nc(-c2ccccc2)no1 [Oxalamine citrate] | > 20 |
| O=[N+]([O-])c1cc(C(F)(F)F)cc([N+](=O)[O-])c1Cl [2-Chloro-1,3-dinitro-5-(trifluoromethyl)benzene] | > 90 |
| BrCBr [Dibromomethane] | > 90 |
| CC1=C(C=O)C(C)(C)CCC1 [beta-Cyclocitral] | > 90 |
| COc1nc(C)nc(NC(=O)NS(=O)(=O)c2ccccc2OCCCl)n1 [Triasulfuron] | > 90 |
| Cc1ccc2c(c1[N+](=O)[O-])C(=O)c1ccccc1C2=O [2-Methyl-1-nitroanthraquinone] | 38.7 |

Same assay, conditions: rat, gh3-tre-luc cells, AC50 (uM) modified / 1000, Tox21_110001=Tox21_113077; viability, 1 nM T3 present, 24 h

| Compound | CC50 at 24 h [µM] |
| --- | --- |
| CNC(C)CC1CCCCC1 (racemic) [(+/-) Propylhexedrine] | > 50 |

Same assay, conditions: rat, gh3-tre-luc cells, AC50 (uM) modified / 1000, Tox21_110001=Tox21_200189; viability, 1 nM T3 present, 24 h

| Compound | CC50 at 24 h [µM] |
| --- | --- |
| BrC(Br)Br [Bromoform] | > 90 |

Same assay, conditions: rat, gh3-tre-luc cells, AC50 (uM) modified / 1000, Tox21_110001=Tox21_200284; viability, 1 nM T3 present, 24 h

| Compound | CC50 at 24 h [µM] |
| --- | --- |
| ClCCOCOCCCl [Bis(2-chloroethoxy)methane] | > 100 |

Same assay, conditions: rat, gh3-tre-luc cells, AC50 (uM) modified / 1000, Tox21_110001=Tox21_202438; viability, 1 nM T3 present, 24 h

| Compound | CC50 at 24 h [µM] |
| --- | --- |
| O=[N+]([O-])c1ccc(Oc2ccc(Cl)cc2Cl)cc1 [Nitrofen] | > 90 |

Same assay, conditions: rat, gh3-tre-luc cells, AC50 (uM) modified / 1000, Tox21_110001=Tox21_203002; viability, 1 nM T3 present, 24 h

| Compound | CC50 at 24 h [µM] |
| --- | --- |
| NC(=S)Nc1cccc2ccccc12 [1-(1-Naphthyl)-2-thiourea] | > 5 |
